Results: patent publication US20150018384A1, “TREATMENT FOR HIGH CHOLESTEROL” (FibroGen, Inc., priority 2012, published 2015)
Entries after “also recorded” stand apart in the source; their conditions may differ.

Tests used:
ApoE deficient mice [1] = test: High cholesterol mouse model, ApoE deficient mice, 2 weeks; assay type: in vivo; settings: Compound 60 mg/kg three times a week for two weeks, n=10/group, FIG. 22
From the text: (§1) Ten-week-old male apoE knockout mice (Jackson Laboratories, Bar Harbor, Me.) were fed a normal chow diet (0.02% cholesterol, 13.5% fat by weight; LabDiet). […] After 2 weeks of acclimatization, whole blood was collected for baseline measurement before administration of test reagents. […] The animals were sacrificed at end of study.
ApoE deficient mice as described in Example 10 were used to test the effect of various compounds on cholesterol levels. […] A statin compound (rosuvastatin) was also tested. Blood samples were collected at the end of the study and total cholesterol blood levels were tested. A group of 10 mice was sacrificed at the beginning of the study for a baseline total cholesterol measurement. […] Typically statins show mixed results in this model and are not very effective to reduce cholesterol in mice (Bea et al. 2003 Atherosclerosis 167:187-194).

[2] = system: genes involved in cholesterol biosynthesis in DIO mice liver; test: Microarray expression of cholesterol biosynthesis genes in liver of DIO mice; assay type: in vivo, mouse; settings: 60 mg/kg three times a week, 4 weeks of dosing, relative to vehicle treated mice
Description: A number of PHI compounds were evaluated for their effect on the expression of cholesterol biosynthesis genes in mouse liver. […] Liver tissue was harvested and stored in RNALater (Life Technologies). Total RNA was isolated with Trizol (Life Technologies) and purified with RNEasy96 (Qiagen) according to the manufacturers' protocols. RNA concentration was measured by NanoDrop (Thermo), and quality was assessed by Bioanalyzer (Agilent).
Biotinylated microarray probe was prepared using the 3′IVT Express kit (Affymetrix) and hybridized to mouse 430A 2.0 arrays as recommended in the manufacturer's protocol. Arrays were stained, washed, and scanned using Affymetrix equipment and software. Three arrays were run for each treatment and time point, each representing the liver sample from one individual animal.
For microarray analysis, RNA from animals in each treatment group was pooled in pairs (n=3 pairs for 4 h vehicle, n=2 pairs for all other treatment groups, for a total of 13 arrays per compound study). This approach was used to improve the signal-to-noise ratio on microarrays. Biotinylated probe was prepared using the One-Cycle cDNA synthesis kit (Affymetrix) and hybridized to mouse 430A 2.0 arrays as recommended in the manufacturer's protocol. Arrays were stained, washed, and scanned using Affymetrix equipment and software.
Array quality was assessed with GeneChip Operating System and/or Command Console software (Affymetrix). CEL files were uploaded to GeneSpring 7.3.1 (Agilent) using GC-RMA baseline correction. Principal Components Analysis was used to identify and reject outlier arrays. Data are reported as fold-change compared to timepoint-matched vehicle controls from the same study. Values less than 1.0 indicate a reduction of RNA in the treated animal liver tissue.
Liver tissue was collected as described in Example 6 from DIO mice at the end of the study (4 weeks of dosing) described in Example 12. RNA isolation and microarray analysis were carried out as described in Example 6. The expression of 16 genes involved in cholesterol biosynthesis in mice treated with Compound B, Compound E, or Compound D, relative to that in the vehicle treated mice, is shown in Table 7.

cynomolgus monkeys = test: Cholesterol levels after repeated oral administration in monkey toxicity studies; assay type: in vivo, cynomolgus monkey; settings: 28-Day study, daily oral dosing 1, 10 and 30 mg/kg, day 28
Description: During these studies monkeys were fasted prior to each blood collection. Plasma samples were then evaluated at pre-dose and at different time-points for levels of total cholesterol.

ApoE deficient mice [3] = test: Cholesterol reduction and erythrogenesis in ApoE deficient mice, 4 weeks; assay type: in vivo, mouse; settings: orally 2, 20, 60 or 100 mg/kg three times a week for 4 weeks, n=8/group
Description: as §1
Total cholesterol and hemoglobin were measured weekly.

Q: How did the “total cholesterol levels at the end of the study compared to baseline” value (ApoE deficient mice [1]) turn out when `O=C(O)CNC(=O)c1nc(Cl)c2ccccc2c1O` [Compound B, [(1-Chloro-4-hydroxy-isoquinoline-3-carbonyl)-amino]-acetic acid] was run?
A: trend towards lower total cholesterol

Q: What about the “3-hydroxy-3-methylglutaryl-Coenzyme A reductase (Hmgcr) expression” value [2] of the same compound?
A: 0.20

Q: And the “3-hydroxy-3-methylglutaryl-Coenzyme A synthase 1 (Hmgcs1) expression” value [2]?
A: 0.15

Q: What about the “7-dehydrocholesterol reductase (Dhcr7) expression” value [2] of the same compound?
A: 0.43

Q: And the “NAD(P) dependent steroid dehydrogenase-like (Nsdhl) expression” value [2]?
A: 0.34

Q: And the “acetyl-Coenzyme A acetyltransferase 2 (Acat2) expression” value [2]?
A: 0.43

Q: And the “cytochrome P450, family 51 (Cyp51) expression” value [2]?
A: 0.18

Q: What about the “farnesyl diphosphate farnesyl transferase 1 (Fdft1) expression” value [2] of the same compound?
A: 0.30

Q: And the “farnesyl diphosphate synthetase (Fdps) expression” value [2]?
A: 0.26

Q: What about the “isopentenyl-diphosphate delta isomerase (Idi1) expression” value [2] of the same compound?
A: 0.23

Q: And the “lanosterol synthase (Lss) expression” value [2]?
A: 0.38

Q: What about the “mevalonate (diphospho) decarboxylase (Mvd) expression” value [2] of the same compound?
A: 0.20

Q: What about the “mevalonate kinase (Mvk) expression” value [2] of the same compound?
A: 0.54

Q: And the “phosphomevalonate kinase (Pmvk) expression” value [2]?
A: 0.48

Q: What about the “squalene epoxidase (Sqle) expression” value [2] of the same compound?
A: 0.21

Q: What about the “sterol-C4-methyl oxidase-like (Sc4mol) expression” value [2] of the same compound?
A: 0.13

Q: What about the “sterol-C5-desaturase (fungal ERG3, delta-5-desaturase) homolog (S. cerevisae) (Sc5d) expression” value [2] of the same compound?
A: 0.30

Q: Which results are given for `COc1ccc(Oc2ccc3c(O)c(C(=O)NCC(=O)O)ncc3c2)cc1` [Compound D, {[4-Hydroxy-7-(4-methoxy-phenoxy)-isoquinoline-3-carbonyl]-amino}-acetic acid]?
A: total cholesterol levels (cynomolgus monkeys): dose-dependent decrease in cholesterol levels; total cholesterol levels (cynomolgus monkeys; listed as compound D): dose dependent decrease in total cholesterol; total cholesterol levels at the end of the study compared to baseline (ApoE deficient mice [1]): significantly decreased cholesterol levels; 3-hydroxy-3-methylglutaryl-Coenzyme A reductase (Hmgcr) expression [2]: 0.47; 3-hydroxy-3-methylglutaryl-Coenzyme A synthase 1 (Hmgcs1) expression [2]: 0.42; 7-dehydrocholesterol reductase (Dhcr7) expression [2]: 0.76; NAD(P) dependent steroid dehydrogenase-like (Nsdhl) expression [2]: 1.02; acetyl-Coenzyme A acetyltransferase 2 (Acat2) expression [2]: 0.72; cytochrome P450, family 51 (Cyp51) expression [2]: 0.55; farnesyl diphosphate farnesyl transferase 1 (Fdft1) expression [2]: 0.44; farnesyl diphosphate synthetase (Fdps) expression [2]: 0.92; isopentenyl-diphosphate delta isomerase (Idi1) expression [2]: 0.67; lanosterol synthase (Lss) expression [2]: 0.70; mevalonate (diphospho) decarboxylase (Mvd) expression [2]: 0.43; mevalonate kinase (Mvk) expression [2]: 0.77; phosphomevalonate kinase (Pmvk) expression [2]: 1.14; squalene epoxidase (Sqle) expression [2]: 0.89; sterol-C4-methyl oxidase-like (Sc4mol) expression [2]: 0.38; sterol-C5-desaturase (fungal ERG3, delta-5-desaturase) homolog (S. cerevisae) (Sc5d) expression [2]: 0.42; hemoglobin compared to vehicle-treated (ApoE deficient mice [3]): did not significantly increase hemoglobin at any of the tested doses; also recorded: did not show a significant increase in hemoglobin at any of the doses tested; total cholesterol (% change from baseline) compared to vehicle-treated (ApoE deficient mice [3]): lower total cholesterol levels; also recorded: significant percent change in total cholesterol from baseline for the 20 mg/kg, 60 mg/kg, and 100 mg/kg doses
